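Grown in 96-well plates, cells were treated for 48 hours with each compound at five concentrations. Insufficient inhibition: endpoint recorded as highest concentration tested. GI50: concentration for 50% inhibition of growth.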 Activity calls are given as the source filed them. Rule as the data show it: active = GI50 up to about 1.1 µM and inactive = higher. Bounds are passed on as bounds.

Holding throughout (test): inhibition of tumour cell growth, NCI panel, 48 h
Experiment [1] relates to CAKI-1.
The subject of experiment [2] is DU-145.
For experiment [3], the system named is HCT-15.
The subject of experiment [4] is HL-60.
The subject of experiment [5] is KM12.
Experiment [6] has as its system LOX IMVI.
The test system of experiment [7] is MDA-MB-231.
Experiment [8] deals with MDA-MB-435.
Experiment [9] deals with MOLT-4.
In experiment [10] the test system is NCI-H460.
Experiment [11] deals with NCI/ADR-RES.
Experiment [12] has as its system OVCAR-3.
Experiment [13] has as its system OVCAR-5.
The test system of experiment [14] is OVCAR-8.
Experiment [15] relates to SF-268.
Experiment [16] concerns SF-295.
Experiment [17] deals with SK-MEL-2.
Experiment [18] deals with SK-MEL-5.
Experiment [19] deals with SNB-19.
The test system of experiment [20] is UACC-62.

For the compound `CCCC[C@H]1C(=O)O[C@H](C)[C@H](NC(=O)c2cccc(NC=O)c2OC)C(=O)O[C@@H](C)[C@@H]1OC(=O)C(C)CC.CCCC[C@H]1C(=O)O[C@H](C)[C@H](NC(=O)c2cccc(NC=O)c2OC)C(=O)O[C@@H](C)[C@@H]1OC(=O)CC(C)C` (stereo not given in full), the GI50 in experiment [1] is 7.87 µM (inactive); in experiment [2], 13.4 µM (inactive); in experiment [3] it was 12.8 µM; in experiment [4], 10.6 µM (inactive); in [5], 11.6 µM (inactive); in experiment [6] it was 10.3 µM (inactive). In addition, the GI50 in experiment [7] was 12.1 µM (inactive); in experiment [8], 10.3 µM (inactive); in [9] it was 11.2 µM (inactive); in [10], 5.35 µM (inactive); in experiment [11] it was 23 µM (inactive); in experiment [12], 10.2 µM (inactive). The GI50 was 22.2 µM (inactive) in experiment [13]; 12.9 µM (inactive) in experiment [14]; 14.2 µM (inactive) in experiment [15]; 7.45 µM (inactive) in [16]; 6.07 µM (inactive) in experiment [17]; 12 µM (inactive) in experiment [18]. In addition, the results for the GI50 in [19] and in experiment [20] were 9.44 µM (inactive) and 7.14 µM (inactive), respectively.

For the compound `CC(C)OC(=O)C1=C2c3ncccc3C(=O)N2[C@@H](Cl)[C@@H](Cl)[C@@H]1Cl`, the GI50 in experiment [1] was > 100 µM (inactive); in [2], > 100 µM (inactive); in experiment [3], > 100 µM; in experiment [4], 25.8 µM (inactive); in experiment [5], > 100 µM (inactive); in [6], > 100 µM (inactive). Moreover, the GI50 in experiment [7] is > 100 µM (inactive); in [8] it was > 100 µM (inactive); in experiment [9], 31.8 µM (inactive); in experiment [10], > 100 µM (inactive); in [11] it was > 100 µM (inactive); in experiment [12], > 100 µM (inactive). The GI50 was > 100 µM (inactive) in experiment [13]; 39.8 µM (inactive) in experiment [14]; 82.2 µM (inactive) in experiment [15]; > 100 µM (inactive) in experiment [16]; > 100 µM (inactive) in experiment [17]; > 100 µM (inactive) in experiment [18]. For the same compound, the GI50 in experiment [19] and in experiment [20] was > 100 µM (inactive) throughout.

With `C=C[C@H]1CC[C@H]2[C@@H]3CC=C4C[C@@H](OC5OCC(O)C(O)C5O)CC[C@]4(C)[C@H]3CC[C@]12C` (stereo not given in full), the GI50 in experiment [1] is 6.62 µM (inactive); in experiment [2], 34.1 µM (inactive); in experiment [3] it was 25.5 µM; in experiment [4], 29.7 µM (inactive); in experiment [5] it was 12.9 µM (inactive); in [6] it was 10.8 µM (inactive). The GI50 is 11.4 µM (inactive) in experiment [7]; 15.9 µM (inactive) in [8]; 46.6 µM (inactive) in experiment [9]; 13.1 µM (inactive) in [10]; 15.9 µM (inactive) in [11]; 11.9 µM (inactive) in experiment [12]. Also, the GI50 in experiment [13] is 11.7 µM (inactive); in experiment [14] it was 16.3 µM (inactive); in experiment [15], 13.8 µM (inactive); in experiment [16], 15.2 µM (inactive); in experiment [17], 16.6 µM (inactive); in [18], 18.2 µM (inactive). The GI50 in experiment [19] is 25.7 µM (inactive); in experiment [20] it was 15.5 µM (inactive).

In the case of `N/C(=N\c1ccc(Cl)cc1)NS(=O)(=O)c1cc(Cl)c(Oc2ccc([N+](=O)[O-])cc2Cl)c(Cl)c1`, the GI50 is 17.2 µM (inactive) in experiment [1]; 15.7 µM (inactive) in experiment [2]; 16.9 µM in [3]; 16.7 µM (inactive) in experiment [4]; 17.8 µM (inactive) in experiment [5]; 16.1 µM (inactive) in experiment [6]. The GI50 in experiment [7] is 16.6 µM (inactive); in [8] it was 18.4 µM (inactive); in experiment [9] it was 14.8 µM (inactive); in experiment [10], 18.4 µM (inactive); in experiment [11], 17.2 µM (inactive); in experiment [12] it was 16.8 µM (inactive). The GI50 in [13] is 19.7 µM (inactive); in experiment [14], 16.6 µM (inactive); in [15], > 100 µM (inactive); in experiment [16], 17.4 µM (inactive); in [17] it was 20.5 µM (inactive); in experiment [18], 16.6 µM (inactive). Further, the figures for the GI50 in experiment [19] and in experiment [20] were 17.6 µM (inactive) and 12.2 µM (inactive), respectively.

In the case of `CC(=O)n1[nH]c(=O)n(-c2ccc(Cl)cc2)c1=O`, the GI50 in experiment [1] was > 100 µM (inactive); in [2] it was > 100 µM (inactive); in experiment [3] it was > 100 µM; in experiment [4], > 100 µM (inactive); in experiment [5], > 100 µM (inactive); in experiment [6], > 100 µM (inactive). Besides, the GI50 in experiment [7], in [8], in [9], in experiment [10], in experiment [11] and in experiment [12] was > 100 µM (inactive) each time. Moreover, the GI50 in [13], in [14], in experiment [15], in [16], in [17] and in [18] was > 100 µM (inactive) throughout. The GI50 in [19] and in experiment [20] was > 100 µM (inactive) each time.

Take `CCC1OC2C(CC=C(C)C)=C3OC(C)(O)C(C)(CC)C(OC(=O)c4ccccc4)C3=C3OC(=O)C=C1C32` (stereo not given): the GI50 is 36.6 µM (inactive) in [1]; 32.7 µM (inactive) in experiment [2]; 38.4 µM in [3]; 3.44 µM (inactive) in [4]; 39.9 µM (inactive) in experiment [5]; 18.4 µM (inactive) in experiment [6]. The GI50 in experiment [7] was 22.4 µM (inactive); in [8] it was 36.1 µM (inactive); in [9], 23.1 µM (inactive); in experiment [10], 46.9 µM (inactive); in [11], 36.3 µM (inactive); in experiment [12] it was 51.6 µM (inactive). Besides, the GI50 was 54.1 µM (inactive) in experiment [13]; 39.2 µM (inactive) in experiment [14]; 36 µM (inactive) in experiment [15]; 34.3 µM (inactive) in experiment [16]; 22.8 µM (inactive) in experiment [17]; 19.8 µM (inactive) in experiment [18]. For the same compound, the results for the GI50 in experiment [19] and in experiment [20] were 23.8 µM (inactive) and 30.5 µM (inactive), respectively.

On to `O=c1c2ccccc2n2cnc3ccc(NCCNCCO)c1c32`, for which the GI50 in experiment [1] is 2.43 µM (inactive); in experiment [2] it was 0.384 µM (active); in experiment [3], 3.18 µM; in [4], 2.42 µM (inactive); in experiment [5], 1.17 µM (inactive); in experiment [6], 1.11 µM (active). In addition, the GI50 in [7] is 2.31 µM (inactive); in experiment [8] it was 1.52 µM (inactive); in [9], 0.359 µM (active); in [10], 0.536 µM (active); in experiment [11] it was 2.81 µM (inactive); in experiment [12], 2.19 µM (inactive). Further, the GI50 was 2.02 µM (inactive) in experiment [13]; 0.855 µM (active) in experiment [14]; 1.46 µM (inactive) in experiment [15]; 1.83 µM (inactive) in [16]; 3.03 µM (inactive) in [17]; 1.88 µM (inactive) in experiment [18]. Besides, the GI50 is 3.78 µM (inactive) in experiment [19] and 2.31 µM (inactive) in experiment [20].

As for `CCOc1ccc(/N=N/C2C(=O)N(C(=O)CC(=O)Nc3ccc(C)cc3)N=C2C)cc1` (stereo not given), the GI50 in experiment [1] was 26.5 µM (inactive); in experiment [2] it was 38.6 µM (inactive); in experiment [3], 38.1 µM; in experiment [4] it was 13.1 µM (inactive); in [5], 8.47 µM (inactive); in experiment [6], 14.6 µM (inactive). Further, the GI50 in [7] was 17 µM (inactive); in experiment [8], 2.94 µM (inactive); in experiment [9], 14.7 µM (inactive); in experiment [10] it was 14.8 µM (inactive); in experiment [11], 24.4 µM (inactive); in experiment [12], 20.6 µM (inactive). Moreover, the GI50 in experiment [13] is > 100 µM (inactive); in [14], 16.6 µM (inactive); in experiment [15], 22.3 µM (inactive); in experiment [16], 21.2 µM (inactive); in [17], 26.6 µM (inactive); in experiment [18] it was 72.3 µM (inactive). The results for the GI50 in experiment [19] and in experiment [20] were 14.3 µM (inactive) and 16.7 µM (inactive), respectively.

As for `CC(=O)NC1C(O)C(O)C(CO)OC1n1nc(SCc2ccccc2)c(=O)[nH]c1=O` (stereo not given), the GI50 in experiment [1] was > 100 µM (inactive); in experiment [2] it was > 100 µM (inactive); in experiment [3] it was > 100 µM; in experiment [4], > 100 µM (inactive); in experiment [5], > 100 µM (inactive); in experiment [6], > 100 µM (inactive). In addition, the GI50 in experiment [7], in experiment [8], in [9], in experiment [10], in [11] and in experiment [12] was > 100 µM (inactive) in each case. The GI50 in experiment [13], in experiment [14], in experiment [15], in experiment [16], in [17] and in [18] was > 100 µM (inactive) throughout. Further, the GI50 in [19] and in experiment [20] was > 100 µM (inactive) in each case.
